{
  "source": "patent US20070231921A1",
  "about": "“Method and system for determining whether a drug will be effective on a patient with a disease” (priority 2006, published 2007)",
  "key": {"[1]": {"test_system": "Non-Small-Cell Lung Cancer", "test": "Response rate of Iressa in Japanese NSCLC patients, without and with filtering by the serum mass spectrometer test", "format": "in vivo, human", "conditions": "Japanese population", "method": "Continuing with FIG. 3, step 312, learning may be utilized in generating classifiers for a training set of spectra. In the case of sampling serum for detecting whether an anti-cancer drug will be effective on non-small-cell lung cancer, control groups of patients were utilized, including using three sets of patients whose cancer progressed following chemotherapy. Each of the patients was treated with Iressa and information, including survival times, of these patients was recorded. […] Each data set represents the cancer research center from which spectra and associated patient information was received.\nTABLE III is a summary of the data set attributes used in a study to determine whether a classifier algorithm could be effective in determining whether a cancer patient would be responsive to Iressa. Data sets Italian 1, Italian 2, Japan 1, and Japan 2 were treated with Iressa following sample collection. Training and testing in the development phase was done crosswise from the Italian 1 sets and the two Japanese sets. The patient data included survival data, where the Italian set had very complete patient history together with treatment and cancer type, the Japanese sets only included prognostic information relating to the WHO definitions of clinical labels, including stable disease (SD), progressive disease (PD), and partial responders (PR) measured by CT imaging. […]"}, "[2]": {"test_system": "Non-Small-Cell Lung Cancer", "conditions": "NSCLC patients in Asia, compared with Caucasian populations; cited from earlier work"}},
  "data": [
    {"molecule": "COc1cc2ncnc(Nc3ccc(F)c(Cl)c3)c2cc1OCCCN1CCOCC1", "note": "[Iressa, gefitinib]", "values": [
      {"measurement": "response rate of Iressa", "setting": "[1]; after serum based mass spectrometer test filters non-responders from responders", "value": 90, "unit": "%"},
      {"measurement": "response rate of Iressa", "setting": "[1]; before filtering non-responders from responders", "value": 65, "unit": "%"},
      {"measurement": "response rate", "setting": "[2]", "value": "considerably higher"}
    ]}
  ]
}
